Results on 8 molecules are retold here after PubChem BioAssay (NCI).

The structures appear in SMILES notation.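 Assay format: 96-well plates, 48-hour exposure. TGI denotes the concentration required for complete inhibition of growth.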 A value given as a limit tells only on which side of the number the result lay.

Test systems include CAKI-1 renal; EKVX NSCLC; HCT-15 colon; HL-60(TB) leukemia; HOP-62 NSCLC; IGROV1 ovarian; M14 melanoma; MDA-N; MOLT-4 leukemia; NCI-H522 lung; OVCAR-4 ovarian; RXF 393 renal; SF-539 CNS; SK-OV-3 ovarian; SNB-75 CNS; TK-10 renal; UACC-62 melanoma; UO-31 renal; MALME-3M melanoma.
Common to all, as to experiment: inhibition of tumour cell growth, NCI panel, 48 h

Take `O=C(NO)c1ccc(OCc2ccccc2)cc1`: the TGI with CAKI-1 renal is 54.2 µM; in the experiment on EKVX NSCLC it was greater than 100 µM; with HCT-15 colon it was 45 µM; with HL-60(TB) leukemia it was greater than 100 µM; with HOP-62 NSCLC, greater than 100 µM; in the experiment on IGROV1 ovarian it was greater than 100 µM. Besides, the TGI with M14 melanoma is greater than 100 µM; in the experiment on MDA-N, greater than 100 µM; in the experiment on MOLT-4 leukemia, greater than 100 µM; in the experiment on NCI-H522 lung it was 51.5 µM; with OVCAR-4 ovarian it was 75 µM; in the experiment on RXF 393 renal, greater than 100 µM. For the same molecule, the TGI in the experiment on SF-539 CNS is greater than 100 µM; with SK-OV-3 ovarian, greater than 100 µM; with SNB-75 CNS, greater than 100 µM; in the experiment on TK-10 renal, greater than 100 µM; in the experiment on UACC-62 melanoma, 36.5 µM; with UO-31 renal it was 72.8 µM.
As to `CC(C)=CCC/C(C)=C/CC/C(C)=C/CC/C(C=O)=C/CC/C(C)=C\CC/C(C)=C/CC/C(C)=C/CC/C(C)=C/CC1=CC(=O)C=CC1=O`, the TGI is 74.3 µM in the experiment on CAKI-1 renal; greater than 100 µM with EKVX NSCLC; greater than 100 µM with HCT-15 colon; greater than 100 µM in the experiment on HOP-62 NSCLC; greater than 100 µM in the experiment on IGROV1 ovarian; greater than 100 µM with M14 melanoma. In addition, the TGI was 66.3 µM in the experiment on MALME-3M melanoma; greater than 100 µM in the experiment with MDA-N; greater than 100 µM with MOLT-4 leukemia; 32.3 µM in the experiment with NCI-H522 lung; greater than 100 µM in the experiment with OVCAR-4 ovarian; greater than 100 µM with SK-OV-3 ovarian. Further, the TGI is 96.1 µM in the experiment with SNB-75 CNS, greater than 100 µM with TK-10 renal, 53.1 µM in the experiment with UACC-62 melanoma and greater than 100 µM with UO-31 renal.
Take `CC[C@@H]1C[C@@H](O)[C@@H]2[C@H](O)[C@H](O)CN2C1`: the TGI in the experiment with CAKI-1 renal, in the experiment with EKVX NSCLC, with HCT-15 colon, with HL-60(TB) leukemia, with IGROV1 ovarian and in the experiment on M14 melanoma was greater than 100 µM throughout. The TGI in the experiment on MALME-3M melanoma, with MDA-N, in the experiment on MOLT-4 leukemia, in the experiment with NCI-H522 lung, in the experiment with OVCAR-4 ovarian and in the experiment on SF-539 CNS was greater than 100 µM throughout. Besides, the TGI in the experiment on SK-OV-3 ovarian, in the experiment on SNB-75 CNS, in the experiment on TK-10 renal, with UACC-62 melanoma and in the experiment on UO-31 renal was greater than 100 µM in each case.
`COc1cc(C2SC(N)=Nc3c2c(C)nn3C(=O)Cc2ccccc2)ccc1O` (stereo not drawn): the TGI in the experiment with CAKI-1 renal, with EKVX NSCLC, in the experiment on HCT-15 colon, with HL-60(TB) leukemia, in the experiment with HOP-62 NSCLC and with IGROV1 ovarian was greater than 100 µM in each case. Further, the TGI in the experiment with M14 melanoma, with MALME-3M melanoma, with MDA-N, in the experiment with MOLT-4 leukemia, in the experiment on NCI-H522 lung and with SF-539 CNS was greater than 100 µM each time. Besides, the TGI was greater than 100 µM in the experiment on SK-OV-3 ovarian; 75.2 µM with SNB-75 CNS; greater than 100 µM with TK-10 renal; greater than 100 µM with UACC-62 melanoma; greater than 100 µM in the experiment with UO-31 renal.
`O=C(Nc1ccc(F)cc1)c1cc2ccc(O)cc2oc1=Nc1cccc(F)c1`: the TGI in the experiment on CAKI-1 renal is greater than 100 µM; in the experiment on EKVX NSCLC, 64.4 µM; in the experiment on HCT-15 colon it was 92.2 µM; in the experiment on HL-60(TB) leukemia, 83 µM; with HOP-62 NSCLC, greater than 100 µM; in the experiment with IGROV1 ovarian, 49.7 µM. For the same molecule, the TGI in the experiment with MALME-3M melanoma is greater than 100 µM; with MDA-N, greater than 100 µM; in the experiment on MOLT-4 leukemia it was greater than 100 µM; with NCI-H522 lung, 97.5 µM; in the experiment with OVCAR-4 ovarian it was greater than 100 µM; in the experiment on SF-539 CNS, greater than 100 µM. Moreover, the TGI with SK-OV-3 ovarian and in the experiment on UACC-62 melanoma was greater than 100 µM each time.
As for `CC(C)[C@H](NC(=O)[C@@H](O)[C@H](N)Cc1ccccc1)C(=O)N[C@@H](Cc1ccccc1)C(=O)O`, the TGI with CAKI-1 renal, in the experiment on EKVX NSCLC, with HCT-15 colon, with HL-60(TB) leukemia, with HOP-62 NSCLC and with IGROV1 ovarian was greater than 100 µM in each case. In addition, the TGI in the experiment on M14 melanoma, in the experiment with MALME-3M melanoma, with MDA-N, with MOLT-4 leukemia, in the experiment with NCI-H522 lung and in the experiment on OVCAR-4 ovarian was greater than 100 µM throughout. Besides, the TGI with SK-OV-3 ovarian, in the experiment with SNB-75 CNS, in the experiment on TK-10 renal, in the experiment on UACC-62 melanoma and in the experiment with UO-31 renal was greater than 100 µM in each case.
With `CC1OC2OC3C(OCC(O)C3O)OC(=O)[C@]34CCC(C)(C)CC3C3=CCC5[C@@]6(C)C[C@H](O)[C@H](OC7OC(CO)C(O)C(O)C7OC7OC(COC(=O)CC(C)(O)CC(=O)OC1C(O)C2O)C(O)C(O)C7O)[C@@](C)(CO)C6CC[C@@]5(C)[C@]3(C)CC4` (stereo partly drawn), the TGI was found to be 2.74 µM in the experiment on CAKI-1 renal; 2.91 µM with HCT-15 colon; 2.87 µM in the experiment with HL-60(TB) leukemia; 2.69 µM with HOP-62 NSCLC; 2.54 µM in the experiment on IGROV1 ovarian; 2.76 µM in the experiment with M14 melanoma. Further, the TGI was 2.73 µM in the experiment on MDA-N; 3.08 µM in the experiment with NCI-H522 lung; 3.15 µM in the experiment with OVCAR-4 ovarian; 11.9 µM in the experiment on SF-539 CNS; 2.79 µM in the experiment with SK-OV-3 ovarian; 2.89 µM with SNB-75 CNS. Besides, the results for the TGI in the experiment with TK-10 renal, with UACC-62 melanoma and in the experiment with UO-31 renal were 2.89 µM, 2.81 µM and 2.52 µM, respectively.
For the molecule `Cc1c(C)c2ccc(O)cc2[nH]c1=O`, the TGI with CAKI-1 renal, in the experiment on EKVX NSCLC, with HCT-15 colon, in the experiment with HOP-62 NSCLC, in the experiment on IGROV1 ovarian and with M14 melanoma was greater than 100 µM throughout. In addition, the TGI in the experiment with MDA-N, in the experiment with MOLT-4 leukemia, with OVCAR-4 ovarian, with RXF 393 renal, in the experiment with SF-539 CNS and in the experiment on SNB-75 CNS was greater than 100 µM in each case. Further, the TGI in the experiment on UACC-62 melanoma and with UO-31 renal was greater than 100 µM in each case.
